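In this assay, cells in 96-well plates receive the compound at five concentrations for 48 hours. Endpoints are linearly interpolated between the surrounding concentrations. The concentration for 50% growth inhibition is given as GI50.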 Calls of active or inactive are those of the source. Rule as the data show it: active = GI50 up to about 1.1 µM and inactive = higher.
Assays:
Assay in all cases: inhibition of tumour cell growth, NCI panel, 48 h
[1] = tested on: ACHN
[2] = tested on: CAKI-1
[3] = tested on: SNB-78
[4] = tested on: Malme-3M
[5] = tested on: SR
[6] = tested on: CCRF-CEM
[7] = tested on: UACC-62
[8] = tested on: K562
[9] = tested on: SF-539
[10] = tested on: NCI-H522
[11] = tested on: UO-31
[12] = tested on: UACC-257
[13] = tested on: U-251
[14] = tested on: OVCAR-8
[15] = tested on: SF-295
[16] = tested on: NCI-H226

Measured: GI50

O=C(c1cccs1)N(C(=S)N1CCN(c2ccccc2)CC1)C1CCCCC1
inactive: [1] > 100 µM | [2] > 100 µM | [3] > 100 µM | [4] > 100 µM | [5] > 100 µM | [6] > 100 µM | [7] > 100 µM | [8] > 100 µM | [9] > 100 µM | [10] > 100 µM | [11] > 100 µM | [12] > 100 µM | [13] > 100 µM | [14] > 100 µM | [15] > 100 µM

O=C(O)CN1CCSc2ccccc2CN(CC(=O)O)CCSc2ccccc2C1
inactive: [1] > 100 µM | [2] > 100 µM | [3] > 100 µM | [4] > 100 µM | [5] 4.61 µM | [6] > 100 µM | [7] > 100 µM | [8] > 100 µM | [9] > 100 µM | [10] > 100 µM | [11] > 100 µM | [12] > 100 µM | [13] > 100 µM | [14] > 100 µM | [15] > 100 µM

NNC(=S)N/N=C(\CCCC(=O)NCCc1ccccc1)CC(=O)c1ccccc1
inactive: [1] > 100 µM | [3] > 100 µM | [4] > 100 µM | [5] > 100 µM | [7] > 100 µM | [9] > 100 µM | [10] > 100 µM | [11] > 100 µM | [12] > 100 µM | [13] > 100 µM | [14] > 100 µM | [15] > 100 µM

CC(C)CCCC(C)[C@H]1CCC2[C@@H]3CCC4Nc5nocc5C[C@]4(C)C3CC[C@@]21C (some centres not stated)
inactive: [1] 14.7 µM | [2] 14.4 µM | [3] 19.3 µM | [4] 15.5 µM | [6] 7.23 µM | [7] 22.5 µM | [8] 15.8 µM | [9] 18.9 µM | [10] 3.15 µM | [11] 14.6 µM | [12] 19.7 µM | [16] 19.9 µM | [13] 15.7 µM | [14] 12.6 µM | [15] 19.3 µM

C[C@]12C/C(=C/O)C(=O)C(O)=C1CC[C@@H]1C2CC[C@@]2(C)C1CC[C@@H]2O (some centres not stated)
inactive: [1] 27.8 µM | [2] 26.1 µM | [3] 19.7 µM | [4] 20.8 µM | [6] 18.4 µM | [7] 16.5 µM | [8] 22.3 µM | [9] 18.7 µM | [10] 15.6 µM | [11] 16.3 µM | [12] 22.4 µM | [16] 19.6 µM | [13] > 10 µM | [14] 27.1 µM | [15] 26.7 µM
